Results on six molecules are retold here after patent publication US20030199017A1, “Method for releasing a product comprising chemical oxidation, method for detecting said product and uses thereof” (Proteus, priority 2000, published 2003).

The nature of data set [1]: stability of the substrates / oxidation by periodate in the presence of BSA. Format: physicochemical. To be noted: aqueous media. From the text: The oxidation of 1,2 diols and amino alcohols by periodate in an aqueous medium is a reaction that is well known to one skilled in the art. This reaction provides a purely chemical alternative for the conversion of alcohols into carbonyl groups in aqueous medium with a high chemoselectivity in the presence of other functional groups.
The substrates acetates 1, amide 5 and epoxide 6 are stable in the presence of periodate and BSA […] the aqueous media. […] Under optimized reaction conditions using 100 μm of substrate, 1 mmol of sodium periodate, 2 mg/ml of BSA in a borate buffer with a pH of 8.8, diol 2 is transformed into umbelliferone with a yield of 72% without observable secondary reactions. […] The oxidation of amino alcohol 6 takes place with a yield of 85% under the same conditions.

Data set [2] is described as follows: negative control without enzyme, temperature series (para-nitrophenol released from the substrate). Format: physicochemical. Conditions: PIPES buffer 0.1 M pH 7, 40 minutes, no enzyme. How it is done:
(§1) 74 μl of PIPES buffer (100 mmol, pH 7) and 10 μl of a lipase solution at 0.01 mg/ml are added to 13.6 μmol of 2-hydroxy-4-p-nitrophenyl-butyl-decanoate. The reaction is incubated in a water bath for 40 minutes at 50, 60, 70, 80 and 95° C. The samples are then removed from the water bath. Then, 40 μl of NaIO4 (100 mmol) and 4 μl of BSA (50 mg/ml) are added to the mixture. The pH of the solution is then adjusted to 10 by adding 40 μl of an Na2CO3 solution at 0.2 M. The para-nitrophenol that is released is then measured with a colorimeter at 414 nm.
A negative control without enzyme was carried out under the same experimental conditions.
(§2) 74 μl of PIPES buffer (100 mmol, pH 7) and 10 μl of a lipase solution at 0.01 mg/ml are added to 13.6 μmol of para-nitrophenylbutyrate. The reaction is incubated in a water bath for 40 minutes at 50, 60, 70, 80 and 95° C. The samples are then removed from the water bath, and the pH of the solution is adjusted to 10 with a 0.2 M Na2CO3 solution. The released para-nitrophenol is then measured with a calorimeter at 414 nm.
(§3) The activity of the lipase based on the incubation temperature was measured by using 2-hydroxy-4-p-nitrophenyl-butyl-decanoate and the para-nitrophenylbutyrate commercial substrate. […] The activities are expressed in %. The enzymatic reactions were carried out in the PIPES buffer (0.1 M, pH 7) at 50, 60, 70, 80 and 95° C. for 40 minutes. A negative control without enzyme was also carried out by using the same experimental conditions.

The target of data set [3] is T1, Candida antarctica lipase (Moesziomyces antarcticus, UniProt P41365). The data set is described as follows: Candida antarctica lipase activity based on the pH of the solution (release of para-nitrophenol, 414 nm). To be noted: 40 minutes. Type of data set: biochemical. How it is done:
(§4) The hydrolytic activity of the Candida antarctica lipase was tested on 2 substrates: 2-hydroxy-4-p-nitrophenyl-butyl-decanoate and p-nitro-phenylbutyrate. The lipase activity is detected after hydrolysis of ester functions of substrates that produce the release (direct or indirect) of yellow-colored para-nitrophenol that is measured by colorimetry at 414 nm. The tests were carried out at different temperatures and pH.
(§5) The stock solutions of 2-hydroxy-4-p-nitrophenyl-butyl-decanoate and para-nitrophenolbutyrate (SIGMA) are prepared at the concentration of 20 mmol respectively in acetonitrile and isopropanol. The concentration of lipase B that is used is 0.01 mg/ml in a phosphate buffer (100 mmol, pH 7).
The enzymatic activity of the Candida antarctica lipase was carried out at different pH levels by using buffers (100 mmol) listed in Table VII below.
74 μl of buffer at the desired pH (100 mmol) and 10 μl of a lipase solution at 0.01 mg/ml are added to 13.6 μmol of 2-hydroxy-4-p-nitrophenyl-butyl-decanoate. The reaction is incubated in a water bath for 40 minutes at 60° C. The samples are then removed from the water bath. Then, 40 μl of NaIO4 (100 mmol) and 4 μl of BSA (50 mg/ml) are added to the mixture. The pH of the solution is then adjusted to 10 by adding 40 μl of a solution of Na2CO3 at 0.2 M. The para-nitrophenol that is released is then measured with a calorimeter at 414 nm.
(§6) 74 μl of buffer at the desired pH (100 mmol) and 10 μl of a lipase solution at 0.01 mg/ml are added to 13.6 μmol of para-nitrophenylbutyrate. The reaction is incubated in a water bath for 40 minutes at 60° C. The samples are then removed from the water bath, and the pH of the solution is adjusted to 10 with a 0.2 M Na2CO3 solution. The para-nitrophenol that is released is then measured with a colorimeter at 414 nm.
(§7) The hydrolytic activity of the lipase based on the pH of the solution was also measured. […] The activities are expressed in %. The enzymatic reactions were incubated at 60° C. for 40 minutes at pH 3, 4, 5, 6.5, 7 and 8. A negative control without enzyme was also carried out by using the same experimental conditions.

Data set [4] concerns the target T1, Candida antarctica lipase. The data set is described as follows: Candida antarctica lipase activity based on temperature (release of para-nitrophenol, colorimetry at 414 nm). Type of data set: biochemical. Conditions: PIPES buffer 0.1 M pH 7, 40 minutes. How it is done:
as §4, §5, §1, §2, §3

Data set [5] is described as follows: negative control without enzyme, pH series (para-nitrophenol released from the substrate). To be noted: 40 minutes, no enzyme. Type of data set: physicochemical. How it is done:
as §6, §7

T1 sequence (P41365 26-342): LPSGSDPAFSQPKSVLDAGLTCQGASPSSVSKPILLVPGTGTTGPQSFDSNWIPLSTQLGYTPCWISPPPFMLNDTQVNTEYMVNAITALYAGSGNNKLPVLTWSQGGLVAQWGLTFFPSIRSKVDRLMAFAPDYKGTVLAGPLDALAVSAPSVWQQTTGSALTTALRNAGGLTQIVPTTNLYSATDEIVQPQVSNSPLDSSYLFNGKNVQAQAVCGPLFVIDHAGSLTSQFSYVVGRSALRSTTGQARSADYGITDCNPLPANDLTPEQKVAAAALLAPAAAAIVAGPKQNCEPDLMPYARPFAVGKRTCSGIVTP

For the molecule `NCC(O)CCOc1ccc2ccc(=O)oc2c1` (stereo not drawn) [amino alcohol 6, 1-Amino-4-(7-coumarinyloxy)-2-butanol], the “stability in the presence of periodate and BSA” value (shortened to “stability in the presence”) in data set [1] was “release umbelliferone”.

In the case of `O=C(Cc1ccccc1)NCC(O)CCOc1ccc2ccc(=O)oc2c1` (stereo not drawn) [amide 5, 1-Phenylacetamido-4-(7-coumarinyloxy)-2-butanol], the “stability in the presence” value in data set [1] is recorded as “stable”.

As to `CCCC(=O)Oc1ccc([N+](=O)[O-])cc1` [p-Nitrophenylbutyrate, p-nitro-phenylbutyrate, reference compound], the “activity signal Without enzyme” value in data set [2] (50° C.) is given as 83.6%; in data set [2] (60° C.), 67.3%; in data set [2] (70° C.), 59.5%; in data set [2] (80° C.) it was 59.8%; in data set [2] (95° C.) it was 71.5%; in data set [5] (pH 3, 60° C.), 54.9%. Also, the “activity signal Without enzyme” value worked out at 63.6% in data set [5] (pH 4, 60° C.); 65.6% in data set [5] (pH 5, 60° C.); 69.2% in data set [5] (pH 6.5, 60° C.); 51.4% in data set [5] (pH 7, 60° C.); 103.9% in data set [5] (pH 8, 60° C.). For the same molecule, the “activity of the Candida antarctica lipase (Lipase B)” value (shortened to “activity … (Lipase B)”) was 94.2% in data set [3] (pH 3, 60° C.); 73% in data set [3] (pH 4, 60° C.); 100% in data set [3] (pH 5, 60° C.); 79.5% in data set [3] (pH 6.5, 60° C.); 60.8% in data set [3] (pH 7, 60° C.); 103.9% in data set [3] (pH 8, 60° C.). Moreover, the “activity … (Lipase B)” value in data set [4] (50° C.) worked out at 100%; in data set [4] (60° C.), 75.4%; in data set [4] (70° C.), 60.4%; in data set [4] (80° C.), 55.9%; in data set [4] (95° C.), 66.7%.

Take `O=c1ccc2ccc(OCC[C@H]3CO3)cc2o1` [epoxide 6, (S)-4-(7-coumarinyloxy)-1,2-epoxybutane]: in data set [1], the “stability in the presence” value is recorded as “stable”.

Consider `O=c1ccc2ccc(OCC[C@H](O)CO)cc2o1` [diol 2, (S)-4-(7-coumarinyloxy)-1,2-butanediol], for which the “stability in the presence” value in data set [1] is recorded as “release umbelliferone”.

In the case of `CCCCCCCCCC(=O)OCC(O)CCc1ccc([N+](=O)[O-])cc1` (stereo not drawn) [2-hydroxy-4-p-nitrophenyl-butyl-decanoate], the “activity signal Without enzyme” value is 8.7% in data set [2] (50° C.); 9.4% in data set [2] (60° C.); 9.5% in data set [2] (70° C.); 8.1% in data set [2] (80° C.); 8.6% in data set [2] (95° C.); 3.9% in data set [5] (pH 3, 60° C.). Moreover, the “activity signal Without enzyme” value was determined as 2.7% in data set [5] (pH 4, 60° C.); 2.6% in data set [5] (pH 5, 60° C.); 2.9% in data set [5] (pH 6.5, 60° C.); 3.4% in data set [5] (pH 7, 60° C.); 2.8% in data set [5] (pH 8, 60° C.). Moreover, the “activity … (Lipase B)” value in data set [3] (pH 3, 60° C.) is recorded as 58.9%; in data set [3] (pH 4, 60° C.), 80.9%; in data set [3] (pH 5, 60° C.), 96.1%; in data set [3] (pH 6.5, 60° C.), 100%; in data set [3] (pH 7, 60° C.), 72%; in data set [3] (pH 8, 60° C.) it was 40%. The “activity … (Lipase B)” value in data set [4] (50° C.) turned out to be 100%; in data set [4] (60° C.), 75.9%; in data set [4] (70° C.), 61.5%; in data set [4] (80° C.) it was 44.2%; in data set [4] (95° C.) it was 26.1%.
